This note sets out measurements from ChEMBL document CHEMBL5620425, “Design, synthesis and evaluation of novel 1-phenyl-pyrrolo[1,2-b]isoquinolin-3-one derivatives as antagonists for the glycine binding site of the NMDA receptor” (Eur J Med Chem, 2023).

Each structure is given as a SMILES string. pKd: −log10 of the molar value. Calls of active or inactive are those of the source. The calls are words filed in the database; no cut-off is given here.

Test [1] concerns PC-12. The experiment in a line: Neuroprotective activity against NMDA-induced cell injury in rat PC12 cells assessed as cell viability incubated for 24 hrs MTT assay. To be noted: dose 2.5-20 µM. The format is functional, cell-based. A general note: Tetrazolium dyes change colour on reduction, which living cells bring about.
In test [2] the test system is PC-12. The experiment in a line: Neuroprotective activity against NMDA-induced cell injury in rat PC12 cells assessed as cell viability at 2.5 to 20 uM incubated for 24 hrs MTT assay. It counts as functional, cell-based. The note with it: dose 2.5-20 µM.
Test [3] has as its target T1, Glutamate receptor ionotropic, NMDA 1 (Homo sapiens, UniProt Q05586). The experiment in a line: Binding affinity to C-terminal GFP-tagged Grin1 NMDA receptor (unknown origin) expressed in HEK293F cells assessed as dissociation constant by MST assay. The format is cell-based.
Test [4] has as its system PC-12. Nature of the test: Neuroprotective activity against NMDA-induced cell injury in rat PC12 cells assessed as cell viability at 20 uM incubated for 24 hrs MTT assay (reference value: 77.1+/- 1.3%). It counts as functional. To be noted: for viability at 20 µM: Rattus norvegicus; for Activity: 24 h, 20 µM.
Test [5] concerns PC-12. Nature of the test: Cytotoxicity against rat PC12 cells assessed as reduction in cell viability at 20 uM incubated for 24 hrs by MTT assay. The format is functional.
Test [6] concerns PC-12. Nature of the test: Neuroprotective activity against NMDA-induced cell injury in rat PC12 cells assessed as cell viability 5 uM incubated for 24 hrs MTT assay. It counts as functional.
Test [7] concerns PC-12. Nature of the test: Neuroprotective activity against NMDA-induced cell injury in rat PC12 cells assessed as cell viability 10 uM incubated for 24 hrs MTT assay. It counts as functional.
The subject of test [8] is PC-12. Nature of the test: Effect on cell morphology in NMDA-induced rat PC12 cells assessed as cell shrank at 10 uM pretreated with NMDA for 6 hrs. The format is functional, cell-based.
Test [9] addresses Glutamate NMDA receptor (Rattus norvegicus) (UniProt P35439+Q00959+Q00960+Q00961+Q62645+Q8VHN2+Q9R1M7). Nature of the test: Antagonist activity at NMDA receptor in rat PC12 cells assessed as reduction in NMDA-induced calcium ion influx at 10 uM pretreated with compound for 24 hrs followed by NMDA addition and measured after 6 hrs calcium colorimetric assay. The format is cell-based. The note with it: filed as antagonist, time 30.0 hrs.

For test [10], the system named is PC-12. The experiment in a line: Induction of apoptosis in NMDA-induced rat PC12 cells assessed as viable cells at 10 uM pretreated with compound for 24 hrs followed by NMDA addition and measured after 6 hrs by Annexin V-FITC/PI staining based flow cytometer analysis (reference value: 46.58%). The note with it: time 30 hrs, read-out: Activity. The format is functional. A general note: A flow cytometer gives signals particle by particle.

Test [11] deals with PC-12. The experiment in a line: Induction of apoptosis in NMDA-induced rat PC12 cells assessed as early apoptotic cells at 10 uM pretreated with compound for 24 hrs followed by NMDA addition and measured after 6 hrs by Annexin V-FITC/PI staining based flow cytometer analysis (reference value: 23.33%). The format is functional. The note with it: time 30 hrs.
Test [12] has as its system PC-12. Nature of the test: Induction of apoptosis in NMDA-induced rat PC12 cells assessed as late apoptotic cells at 10 uM pretreated with compound for 24 hrs followed by NMDA addition and measured after 6 hrs by Annexin V-FITC/PI staining based flow cytometer analysis (reference value: 22.09 %). The format is functional. To be noted: time 30 hrs.
Test [13] deals with PC-12. The experiment in a line: Induction of apoptosis in NMDA-induced rat PC12 cells assessed as necrotic cells at 10 uM pretreated with compound for 24 hrs followed by NMDA addition and measured after 6 hrs by Annexin V-FITC/PI staining based flow cytometer analysis (reference value: 8%). It counts as functional. To be noted: time 30 hrs.
Test [14] addresses T1, Glutamate receptor ionotropic, NMDA 1. The experiment in a line: Binding affinity to C-terminal GFP-tagged NMDA Grin1.M mutant (unknown origin) expressed in HEK293F cells assessed as dissociation constant by MST assay. The format is cell-based.
Test [15] deals with PC-12. The experiment in a line: Cytotoxicity against rat PC12 cells assessed as reduction in cell viability at 5 uM incubated for 24 hrs by MTT assay. It counts as functional, cell-based.
The mark [16] stands for this setting: PC-12, 24 h, read-out: Activity.

Consider `O=C1C[C@@H](c2cccc(OCc3ccccc3)c2)[C@@H]2Cc3ccccc3CN12`, for which the Activity entry in the test with PC-12 [1] is “Dose-Dependent Effect”. Besides, in the test with PC-12 [2], the result was Active. For the same molecule, the pKd in test [3] was 6.43.
For `O=C1C[C@H](c2cccc(OCc3ccccc3)c2)[C@H]2Cc3ccccc3CN12`, in the test on PC-12 [1], the Activity entry is “Dose-Dependent Effect”. In addition, the outcome with PC-12 [2] was Active. The negative-log Kd (pKd) in [3] was 6.79.
As to `O=C1CC(c2ccc(Cl)cc2)C2Cc3ccccc3CN12` (racemic), the viability at 20 µM with PC-12 [4] (setting [16]) amounted to 77.1%.
As for `O=C1CC(c2cccc(O)c2)C2Cc3ccccc3CN12` (racemic), the Activity with PC-12 [5] is over 87.9%. Moreover, the viability at 20 µM in the test on PC-12 [4] (setting [16]) came out at 78.4%.
As for `O=C1CC(c2ccccc2)C2Cc3ccc(OCc4ccccc4)cc3CN12` (racemic), the Activity with PC-12 [5] is listed as over 87.9%. For the same molecule, the viability at 20 µM in the test with PC-12 [4] (setting [16]) worked out at 68.5%.
As for `O=C1CC(c2cccc(OCc3ccccc3)c2)C2Cc3ccccc3CN12` (racemic), the Activity is over 87.9% in the test on PC-12 [5]; “Dose-Dependent Effect” with PC-12 [1]; 93.1% in the test on PC-12 [6]; 92.7% in the test with PC-12 [7]; 15.6% with PC-12 [11]; 17.88% in the test with PC-12 [12]. In the test on PC-12 [13], the Activity is 6.94%. In addition, the viability at 20 µM with PC-12 [4] (setting [16]) was 94.4%. The result (in the test with PC-12 [8]; in [9]) was Active. The viability at 10 µM in the test on PC-12 [10] came to 59.6%. In addition, the values for the negative logarithm of the Kd (pKd) in [3] and in test [14] were 6.30 and 5.37, respectively.
For `O=C1CC(c2ccccc2)C2Cc3ccc(O)cc3CN12` (racemic), the Activity in the test with PC-12 [5] is on record as over 87.9%. Moreover, the viability at 20 µM with PC-12 [4] (setting [16]) amounted to 82.4%.
On the same counts, the results for `O=C1CC(c2ccccc2)C2Cc3ccc(F)cc3CN12` (racemic) are over 87.9% and 82.2%.
In the case of `O=C1CC(c2ccccc2)C2Cc3ccccc3CN12` (racemic; 13a), the Activity with PC-12 [5] is listed as over 87.9%. Moreover, the viability at 20 µM with PC-12 [4] (setting [16]) was found to be 85.3%.
With `O=C1CC(c2ccc(F)cc2)C2Cc3ccccc3CN12` (racemic; 13d), the Activity in the test with PC-12 [5] is over 87.9%. For the same molecule, the viability at 20 µM with PC-12 [4] (setting [16]) is 90.6%.
As to `O=C1CC(c2ccccc2Cl)C2Cc3ccccc3CN12` (racemic; 13e), the Activity in the test with PC-12 [5] was over 87.9%. The viability at 20 µM with PC-12 [4] (setting [16]) stood at 77.9%.
For `COc1ccc(C2CC(=O)N3Cc4cc(O)ccc4CC23)cc1` (racemic; 13f), the Activity in the test on PC-12 [5] is given as over 87.9%. For the same molecule, the viability at 20 µM with PC-12 [4] (setting [16]) came out at 81.7%.
`O=C1CC(c2ccc(C(F)(F)F)cc2)C2Cc3ccccc3CN12` (racemic; 13g): the viability at 20 µM in the test on PC-12 [4] (setting [16]) turned out to be 85.6%.
As to `Cc1ccc(C2CC(=O)N3Cc4ccccc4CC23)cc1` (racemic; 13i) [listing 1 of 2 here], the viability at 20 µM in the test with PC-12 [4] (setting [16]) turned out to be 77%.
In the case of `Cc1ccc(C2CC(=O)N3Cc4ccccc4CC23)cc1` (racemic; 13i) [listing 2 of 2 here], the outcome with PC-12 [15] was Active.
`O=C1CC(c2cccc(Oc3ccccc3)c2)C2Cc3ccccc3CN12` (racemic; 13j) [listing 1 of 2 here]: the Activity in the test on PC-12 [5] was 3.4%. For the same molecule, the viability at 20 µM in the test on PC-12 [4] (setting [16]) stood at 77.6%.
Regarding `O=C1CC(c2cccc(Oc3ccccc3)c2)C2Cc3ccccc3CN12` (racemic; 13j) [listing 2 of 2 here], in the test with PC-12 [15], the result was Active.
For `O=C1CC(c2ccccc2Oc2ccccc2)C2Cc3ccccc3CN12` (racemic; 13k), the Activity in the test on PC-12 [5] is given as 3.4%. The viability at 20 µM with PC-12 [4] (setting [16]) is 77.5%.
Consider `O=C1CC(c2cccc3ccccc23)C2Cc3ccccc3CN12` (racemic; 13l), for which the viability at 20 µM in the test with PC-12 [4] (setting [16]) was determined as 74.2%.
For `O=C1CC(c2ccccc2)C2Cc3ccccc3CN12` (racemic; 14a), the Activity with PC-12 [4] was determined as 85%.
With `O=C1CC(c2ccc(F)cc2)C2Cc3ccccc3CN12` (racemic; 14e), the Activity in the test with PC-12 [4] was determined as 88.1%.
Consider `O=C1CC(c2ccccc2Cl)C2Cc3ccccc3CN12` (racemic; 14f), for which the Activity in the test on PC-12 [4] is listed as 74.8%.
For the molecule `COc1ccc(C2CC(=O)N3Cc4cc(O)ccc4CC23)cc1` (racemic; 14g), the Activity in the test on PC-12 [4] was 75.2%.
Same read-out and setting: as for `O=C1CC(c2ccc(C(F)(F)F)cc2)C2Cc3ccccc3CN12` (racemic; 14h), the figure is 78.7%; as for `Cc1ccc(C2CC(=O)N3Cc4ccccc4CC23)cc1` (racemic; 14j), 82.3%; as for `O=C1CC(c2cccc(Oc3ccccc3)c2)C2Cc3ccccc3CN12` (racemic; 14k) [listing 1 of 2 here], 72.3%.
With `O=C1CC(c2cccc(Oc3ccccc3)c2)C2Cc3ccccc3CN12` (racemic; 14k) [listing 2 of 2 here], the outcome in the test on PC-12 [15] was Active.
In the case of `O=C1CC(c2ccccc2Oc2ccccc2)C2Cc3ccccc3CN12` (racemic; 14l) [listing 1 of 2 here], the Activity with PC-12 [4] is listed as 76.3%.
Take `O=C1CC(c2ccccc2Oc2ccccc2)C2Cc3ccccc3CN12` (racemic; 14l) [listing 2 of 2 here]: in the test with PC-12 [15], the outcome was Active.
Turning to `O=C1CC(c2cccc3ccccc23)C2Cc3ccccc3CN12` (racemic; 14m), the Activity with PC-12 [4] was found to be 74%.
Consider `C[C@]12N[C@H](Cc3ccccc31)c1ccccc12` [DIZOCILPINE], for which, in the test with PC-12 [4] (PC-12, read-out: Activity), the viability at 20 µM worked out at 95.1%. The result (with PC-12 [8]; in [9]) was Active. In addition, the viability at 10 µM in the test with PC-12 [10] turned out to be 70.9%. Further, the Activity in the test on PC-12 [11] is listed as 10.22%; in the test with PC-12 [12] it was 12.12%; in the test on PC-12 [13], 6.81%.

As a reminder, the pKd is the negative decadic logarithm of the Kd, by convention in mol/L.
